Series [1] relates to CCD-18Co cells. The series can be described thus: MTT assay, metabolic activity of CCD-18Co fibroblasts. In kind it is cell-based, human. As to conditions: 48 h. On the procedure:
(§1) The effect of acridine-benzohydrazides (3a–3d) on the metabolic activity of the lung adenocarcinoma cell line (A549) and the normal colon fibroblast cell line (CCD-18Co) was evaluated using a 3-(4,5-dimethylthiazol-2-yl)-2,5-diphenyltertrazolium bromide (MTT) cell assay. This assay is based on the metabolization of yellow MTT to purple formazan crystal by mitochondrial dehydrogenases, and therefore only metabolic active cells are capable of that reaction. The CCD-18Co cell line was used as a control to check for derivatives selectivity. The doxorubicin belongs to a group of anthracyclines, which represent the chemotherapeutic regiments for the treatment of NSCLC (non-small cell lung carcinoma) even today, and acts as antineoplastic mainly by interaction with the DNA topoisomerase II and by creating DNA single- and double-strand breaks. Previous studies described detailed cytotoxic effects of doxorubicin in the human lung adenocarcinoma A549 cell line. Doxorubicin resembles our compounds in its biological action; therefore, it was employed as a positive control.
(§2) Human lung carcinoma cell line A549 and CCD-18Co colon fibroblasts were purchased from the American Type Culture Collection (ATCC, Rockville, MD, USA). The A549 cells were cultured in a complete RPMI-1640 medium (Sigma-Aldrich, St. Louis, MO, USA) and CCD-18Co cells were cultured in a minimum essential medium (MEM) (PAN-Biotech GmbH, Aidenbach, Germany) at 37 °C, 95% humidity and 5% CO2. The media were supplemented with 10% fetal bovine serum (FBS, Biosera, Nuaille, France) and antibiotics (1% Antibiotic-Antimycotic 100 × and 50 × 10^−3 g L^−1 gentamicin, Biosera). Prior to the selected treatments, cells were seeded on 6- and/or 96-well plates (TPP, Trasadingen, Switzerland) and left to settle for 24 h. The acridine compounds solutions (at concentrations ranging from 5–75 µM) were then added to cells for 24 or 48 h, and analysis was subsequently performed.
(§3) MTT assays were performed in order to evaluate changes in the metabolic activity of cells that had occurred as a consequence of treatment with the acridine compounds. A549 cells (15 × 10^3 cells/cm^2) and CCD-18Co (15.625 × 10^3 cells/cm^2) were seeded in 96-well microplates. The A549 cells were treated for 24 and 48 h, and the CCD-18Co cells were treated for 48 h with different concentrations (5, 25, 50 and 75 µM) of the derivatives. After the treatment, the MTT (3-(4,5-dimethylthiazol-2-yl)-2,5-diphenyltertrazolium bromide) solution in PBS (5 mg mL^−1) was added to each well. The reaction was stopped after 4 h incubation, and the formazan was dissolved by the addition of SDS at a final concentration of 3.3%. The absorbance of formazan (λ = 584 nm) was measured using a BMG FLUOstar Optima spectrometer (BMG Labtech GmbH, Offenburg, Germany). The results were evaluated as percentages of the absorbance of the untreated control. Results are presented as the average percentage of cells from three independent experiments. IC50 values for the derivatives were extrapolated from a sigmoidal fit (dose-response curve) to the metabolic activity data using OriginPro 8.5.0 SR1 (OriginLab Corp., Northampton, MA, USA).
(Formazan colour is commonly taken as a measure of viable cells.)

In series [2] the test system is A549 cells. In words: MTT assay, metabolic activity of A549 cells. In kind it is cell-based, human. As to conditions: for IC50: Homo sapiens. The protocol:
as §1, §2, §3

Regarding `O=C(N/N=C/c1ccc(F)cc1)c1cccc2cc3ccccc3nc12` [7b, N′-[(E)-4-Fluorophenylmethylidene]acridine-4-carbohydrazide], the melting point (in general, the temperature of the solid-liquid transition) lay in the range of 255 to 256 °C.

`O=C(N/N=C/c1ccc(Br)cc1)c1cccc2cc3ccccc3nc12` [7d, N′-[(E)-4-Bromophenylmethylidene]acridine-4-carbohydrazide] came in with a melting point of 240 to 241 °C.

`O=C(N/N=C/c1ccc(Cl)cc1)c1cccc2cc3ccccc3nc12` [7c, N′-[(E)-4-Chlorophenylmethylidene]acridine-4-carbohydrazide]: the melting point lay within 243 to 244 °C.

Consider `COc1cccc2c1C(=O)c1c(O)c3c(c(O)c1C2=O)C[C@@](O)(C(=O)CO)C[C@@H]3O[C@H]1C[C@H](N)[C@H](O)[C@H](C)O1` [DOXO, doxorubicin, reference compound], for which the “effect on metabolic activity of CCD-18Co cells” value in series [1] (5–75 μM tested) is “significantly decreased”. Moreover, the IC50 (in general, the concentration at which inhibition is half-maximal) in series [1] (Homo sapiens, CCD-18Co) amounted to 5 µM; in series [2] (A549, 24 h) it was 56 µM; in series [2] (A549, 48 h), 5 µM. The “effect on metabolic activity of A549 cells” value in series [2] (24 h and 48 h, 5–75 μM tested) was “significantly decreased”.

The values are drawn from paper PMC9100673, “Acridine Based N-Acylhydrazone Derivatives as Potential Anticancer Agents: Synthesis, Characterization and ctDNA/HSA Spectroscopic Binding Properties” (Molecules, 2022).
